Laboratory results: patent US20260364174A1, “Purpurin Analogs for Use in Photodynamic Therapy” (RMW Cho Group Limited, priority 2023, published 2026)

Columns and labels:
[1] = test system: SKOV3 ovarian cancer cells; test: Phototoxicity: % viable SKOV3 cells (AlamarBlue) after incubation with photosensitizer and 680 nm LED activation; assay type: cell-based; details: Homo sapiens, SK-OV-3, light or radiation study, 24 h uptake, 50 mW/cm^2 for 5 mins (15 J/cm^2), viability after further 24 h
Description: (§1) Photosensitizers (e.g. purpurin analogue, chlorin e4 disodium (provided by Advanced Molecular Technologies, Scoresby) or Talaporfin sodium (purchased from Focus Bioscience cat #HY-16477-5MG)) were resuspended in 100% dimethylsulfoxide (DMSO) at a concentration of 5.5 mM. Samples were stored at 4 °C protected from light.
(§2) For in vitro experiments, photosensitizers (stock solution 5.5 mM in 100% DMSO) were diluted 1:100 in concentrated excipient solution (final 55 μM photosensitizer in 10% w/v Kollidon-12, 42.4% w/v polysorbate 80, 40% w/v ethanol, 1.0% DMSO). Serial dilutions were prepared in cell culture media (Dulbecco's Modified Eagle Medium/Nutrient Mixture F-12 (DMEM/F-12)) supplemented with 10% v/v Fetal Bovine Serum, 100 U/mL penicillin, 100 μg/mL streptomycin and the same excipient solution at a constant 1:55 dilution.
(§3) Human ovarian cancer cell line SKOV3 (ATCC #HTB-77) was maintained in Dulbecco's Modified Eagle Medium/Nutrient Mixture F-12 (DMEM/F-12), supplemented with […] Fetal Bovine Serum, 100 U/mL penicillin and 100 μg/mL streptomycin. Monolayer cultures were grown in a humidified incubator at 37 °C with 5% CO2. Once cells had reached ~80% confluence, spent media was replaced with media containing photosensitizer at the required concentration and cells were incubated for the desired period of time to allow photosensitizer uptake.
(§4) All data were analysed using GraphPad PRISM v8.3.1 (549) (GraphPad Software, CA). Spectral absorbance and viability measurements were normalized in the range 0-100%, with a minimum of 0 and a maximum value determined from the dataset. Dose response was determined using a sigmoidal four-point non-linear regression with variable slope, and IC10 or IC90 calculated for each compound. All data are shown as mean±SD (where appropriate).
(§5) SKOV3 cells were seeded in 96-well black wall plates (Greiner #655090) at a cell density of 5000 cells in 100 μl culture medium per well. On reaching ~60% confluence, media was aspirated and replaced with fresh media containing the relevant purpurin analogue from 0-100 μM in DMSO. Cells were incubated for a further 24 hours, allowing uptake of purpurin analogues.
To test for phototoxicity, cells incubated with purpurin analogues ([…] in DMSO) had culture media replaced after 24 hours (as above) and were then exposed to a 680 nm light-emitting diode (LED) panel (Invion) with optical power density at 50 mW/cm^2 for 5 mins (total 15 J/cm^2). Laser and LED exposure induce an equivalent response in relation to phototoxicity. Following activation, cells were cultured for a further 24 hours. Media was then replaced with fresh media containing AlamarBlue, and % viable cells remaining assessed as above. Controls included cells treated with purpurin analogues but not activated by laser light; cells without purpurin analogue treatment but with laser light; and untreated controls. All measurements were made in quadruplicate.
(§6) The phototoxicity and inherent cytotoxicity (i.e. “dark toxicity”) of purpurin analogues were assessed as previously using SKOV3 ovarian cancer cells. For comparative purposes, purpurin analogues were compared against chlorin e4 disodium and Talaporfin sodium, a clinically approved photosensitizer used in the photodynamic treatment of lung cancers. Phototoxicity IC90 values and dark toxicity IC10 values were calculated using a log[inhibitor]-vs normalized response dose curve with variable slope, using the formula Y=100/(1+(IC90/X)^HillSlope (phototoxicity IC90)) or Y=100/(1+(IC10/X)^HillSlope (dark toxicity IC10)).

[2] = test system: SKOV3 ovarian cancer cells; test: Therapeutic index (phototoxicity IC90 vs dark toxicity IC10); assay type: cell-based, human
Description: as §6
To evaluate the therapeutic potential of purpurin analogues, the therapeutic index (TI) was calculated. TI provides a quantitative measurement to describe relative drug safety, by comparing the drug concentration required for desirable effects versus the concentration resulting in undesirable off-target toxicity. TI was calculated using phototoxicity IC90 vs dark toxicity IC10.

[3] = test system: SKOV3 ovarian cancer cells; test: Inherent cytotoxicity (dark toxicity): % viable SKOV3 cells (AlamarBlue) without light; assay type: cell-based, human; details: 24 h incubation, no light
Description: as §1, §2, §3, §4, §5
To test for inherent cytotoxicity (i.e. “dark toxicity”) of the purpurin analogues, the culture media was replaced after 24 hours with fresh media containing 10% (v/v) AlamarBlue Cell Viability Reagent (ThermoFisher) and cells incubated at 37 °C for 6 hours. Untreated cells were used as a control. Fluorescence (Ex 555 nm/Em 596 nm) was measured using a CLARIOstar Plus Microplate Readear (BMG Labtech), and cytotoxicity assessed according to the % viable cells remaining. All measurements were made in quadruplicate.
as §6

[4] = test system: indomethacin-induced gastric lesions; details: rats; cited from earlier work
[5] = test system: TAA- or CCl4-induced acute liver injuries; details: mice; cited from earlier work

| Compound | IC90 [1] [nM] | Therapeutic Index [2] | Dark toxicity (IC10) [3] [nM] | protective effect against indomethacin-induced gastric lesions [4] | protective effect against TAA- or CCl4-induced acute liver injuries [5] |
| --- | --- | --- | --- | --- | --- |
| C=Cc1c(C)c2cc3nc(c(C)c4[nH]c(cc5nc(cc1[nH]2)C(C)=C5CC)c(C)c4C(=O)O)[C@@H](CCC(=O)O)[C@@H]3C [Chlorin e4 disodium, chlorin e4 disodium, reference compound] | 21300 | 1.89 | 40230 |  |  |
| C=Cc1c(C)c2cc3nc(c(C)c4nc(cc5[nH]c(cc1[nH]2)c(C)c5CC)C(C)=C4C(=O)O)[C@@H](CCC(=O)O)[C@@H]3C [Chlorin e4] |  |  |  | protective effect against indomethacin-induced gastric lesions in rats | protective effect |
| CCCCCCN1C(=O)c2c3nc(cc4[nH]c(cc5nc(cc6[nH]c2c(c6C)C1=O)C(CC)=C5C)c(COC(=O)NCCC[P+](c1ccccc1)(c1ccccc1)c1ccccc1)c4C)[C@@H](C)[C@@H]3CCC(=O)OC [Compound 1, purpurin 18 13-(N-(3-triphenylphosphoniumpropyl)bromide)carbamate N-hexylimide methyl ester] | 46 | 1731.09 | 79630 |  |  |
| CCCCCCN1C(=O)c2c3nc(cc4[nH]c(cc5nc(cc6[nH]c2c(c6C)C1=O)C(CC)=C5C)c(COC(=O)CCCC[P+](c1ccccc1)(c1ccccc1)c1ccccc1)c4C)[C@@H](C)[C@@H]3CCC(=O)OC [Compound 2, purpurin 18 N-hexylimide 13-(oxopentyl)triphenylphosphonium bromide] | 27 | 2875.19 | 77630 |  |  |
| CCC1=C(C)c2cc3[nH]c(cc4nc(c5c6[nH]c(cc1n2)c(C)c6C(=O)N(CCOCCOC)C5=O)[C@@H](CCC(=O)OC)[C@@H]4C)c(C)c3COC(=O)NCCC[P+](c1ccccc1)(c1ccccc1)c1ccccc1 [Compound 3, purpurin 18 13-(N-(3-triphenylphosphoniumpropyl)bromide)carbamate N-(2-(2-methoxyethoxy)ethyl)imide methyl ester] | 102 | 498.43 | 50840 |  |  |
| C=Cc1c(C)c2cc3nc(c4c5[nH]c(cc6nc(cc1[nH]2)C(C)=C6CC)c(C)c5C(=O)N(CCC[P+](c1ccccc1)(c1ccccc1)c1ccccc1)C4=O)[C@@H](CCC(=O)N(C)CCOCCOC)[C@@H]3C [Compound 4, purpurin 18 N-(3-triphenylphosphoniumpropylbromide)imide N-(2-(2-methoxyethoxy)ethyl)-N-methyl-amide] | 10 | 4991.00 | 49910 |  |  |
| C=Cc1c(C)c2cc3nc(c4c5[nH]c(cc6nc(cc1[nH]2)C(C)=C6CC)c(C)c5C(=O)OC4=O)[C@@H](CCC(=O)NCCC[P+](c1ccccc1)(c1ccccc1)c1ccccc1)[C@@H]3C [Compound 5, purpurin 18 (N-(3-triphenylphosphoniumpropyl)bromide)amide] | 5 | 9976.00 | 49880 |  |  |
| C=Cc1c(C)c2cc3nc(c4c5[nH]c(cc6nc(cc1[nH]2)C(C)=C6CC)c(C)c5C(=O)N(CCOCCOC)C4=O)[C@@H](CCC(=O)NCCC[P+](c1ccccc1)(c1ccccc1)c1ccccc1)[C@@H]3C [Compound 6, purpurin 18 (N-(3-triphenylphosphoniumpropyl)bromide)amide N-(2-(2-methoxyethoxy)ethyl)imide] | 9 | 5674.44 | 51070 |  |  |
| CCCCCCN1C(=O)c2c3nc(cc4[nH]c(cc5nc(cc6[nH]c2c(c6C)C1=O)C(CC)=C5C)c(CN(C)C(=O)CCCC[P+](c1ccccc1)(c1ccccc1)c1ccccc1)c4C)[C@@H](C)[C@@H]3CCC(=O)OC [Compound 7, purpurin 18 N-hexylimide 13-(N-methyl-5-triphenylphosphonium bromidepentanamide) methyl ester] | 21 | 2352.38 | 49400 |  |  |
| C=Cc1c(C)c2cc3nc(c(CC(=O)N[C@@H](CC(=O)O)C(=O)O)c4[nH]c(cc5nc(cc1[nH]2)C(C)=C5CC)c(C)c4C(=O)O)[C@@H](CCC(=O)O)[C@@H]3C [Talaporfin sodium, reference compound] |  | 0.49 | 11100 |  |  |
